Data taken from BindingDB's records for doi:10.1016/j.bmc.2009.10.032 (NIH, 2009).

Key:
Protein Mdm4 = target: T1, Protein Mdm4 (Homo sapiens, UniProt O15151); experiment: Fluorescence Anisotropy Competition Binding Assay
T1 sequence (O15151 whole entry): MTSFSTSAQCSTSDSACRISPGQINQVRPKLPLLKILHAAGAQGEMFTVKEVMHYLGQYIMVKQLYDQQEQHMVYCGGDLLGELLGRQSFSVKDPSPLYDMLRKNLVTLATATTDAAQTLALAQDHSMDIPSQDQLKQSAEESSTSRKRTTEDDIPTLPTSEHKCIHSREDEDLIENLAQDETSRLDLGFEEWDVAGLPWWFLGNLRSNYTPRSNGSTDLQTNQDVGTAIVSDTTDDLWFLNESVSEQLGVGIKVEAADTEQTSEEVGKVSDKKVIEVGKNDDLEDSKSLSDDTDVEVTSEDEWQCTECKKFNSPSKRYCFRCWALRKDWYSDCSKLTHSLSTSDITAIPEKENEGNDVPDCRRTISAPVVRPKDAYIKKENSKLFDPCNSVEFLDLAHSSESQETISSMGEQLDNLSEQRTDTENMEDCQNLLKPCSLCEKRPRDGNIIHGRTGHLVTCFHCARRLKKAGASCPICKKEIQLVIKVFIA
Protocol: (§1) Inhibitory activities of NAPAs were measured by fluorescence anisotropy competition experiments. Protein was incubated with fluorescein-labeled human p53 peptide in the presence of test compound. Experiments were performed with a 70-fold molar excess of protein over labeled p53-peptide to ensure that the peptide is completely bound by the protein. […] Fluorescence anisotropy was measured at 25 deg C on a Beacon 2000 (PanVera, Madison, WI). Data points were measured in triplicate. IC50 values were calculated by nonlinear regression curve fitting.

[1] = target: E3 ubiquitin-protein ligase Mdm2 (Homo sapiens, UniProt Q00987); experiment: Fluorescence Anisotropy Competition Binding Assay
Protocol: as §1

Chain of E3 ubiquitin-protein ligase Mdm2 (Q00987 whole entry): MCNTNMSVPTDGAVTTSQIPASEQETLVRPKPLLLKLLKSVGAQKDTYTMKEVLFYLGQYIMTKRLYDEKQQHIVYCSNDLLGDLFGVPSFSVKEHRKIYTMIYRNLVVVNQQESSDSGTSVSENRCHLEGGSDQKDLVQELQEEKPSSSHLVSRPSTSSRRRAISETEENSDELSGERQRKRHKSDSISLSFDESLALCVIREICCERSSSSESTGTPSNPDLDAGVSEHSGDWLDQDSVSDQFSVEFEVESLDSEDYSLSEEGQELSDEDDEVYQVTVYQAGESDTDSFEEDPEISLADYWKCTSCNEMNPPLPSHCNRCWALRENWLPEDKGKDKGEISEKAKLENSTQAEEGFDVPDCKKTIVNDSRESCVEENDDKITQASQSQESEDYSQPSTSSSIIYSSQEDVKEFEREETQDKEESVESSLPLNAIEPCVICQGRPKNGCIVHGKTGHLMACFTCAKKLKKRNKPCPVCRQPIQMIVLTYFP

IC50 (Protein Mdm4)	IC50 [1]	IC50 ([1]; pH 7.6, 23 °C)	SMILES
> 100 µM	> 100 µM		CC(C)CCC(=O)NC(CCC(=O)O)CN(CCCCCC1CCCCC1)C(CCCCN)CN(CCCCc1ccc(Br)cc1)C(CCC(=O)O)CN(CCCCCc1ccc(F)cc1)CCC(N)=O (centres undefined) [N-acylpolyamine (NAPA) scaffold, 36]
7.6 µM		10.5 µM	NCCCCC(CN(C(=O)NCCc1ccc(Br)cc1)C(CCC(=O)O)CN(CCC(N)=O)C(=O)NCCCc1ccc(Br)cc1)N(CC(CCC(=O)O)NC(=O)Nc1ccccc1)C(=O)NCCCC1CCCCC1 (centres undefined) [N-acylpolyamine (NAPA) scaffold, 19]
